Results: patent publication US11786517B2, “Methods of treatment using a JAK inhibitor compound” (THERAVANCE BIOPHARMA R&D IP, LLC, priority 2017, dated 2023)

What was measured:
BALF eosinophils = assay: Murine model of Alternaria alternata-induced eosinophilic inflammation of the lung; assay type: in vivo, C57 mice; conditions: mouse, oropharyngeal aspiration 0.1-1.0 mg/mL, forty-eight hours after alternaria challenge
Procedure: Airway eosinophilia is a hallmark of human asthma. Alternaria alternata is a fungal aeroallergen that can exacerbate asthma in humans and induces eosinophilic inflammation in the lungs of mice (Havaux et al. Clin Exp Immunol. 2005, 139(2):179-88).
Seven- to nine-week old male C57 mice from Taconic were used in the study. On the day of study, animals were lightly anesthetized with isoflurane and administered either vehicle or test compound (0.1-1.0 mg/mL, 50 μL total volume over several breaths) via oropharyngeal aspiration. Animals were placed in lateral recumbency post dose and monitored for full recovery from anesthesia before being returned to their home cage. One hour later, animals were once again briefly anesthetized and challenged with either vehicle or alternaria extract (200 ug total extract delivered, 50 μL total volume) via oropharyngeal aspiration before being monitored for recovery from anesthesia and returned to their home cage. Forty-eight hours after alternaria administration, bronchoalveolar lavage fluid (BALF) was collected and eosinophils were counted in the BALF using the Advia 120 Hematology System (Siemens).
Activity in the model is evidenced by a decrease in the level of eosinophils present in the BALF of treated animals at forty-eight hours compared to the vehicle treated, alternaria challenged control animals. […]

airway neutrophils = assay: Murine model of LPS/G-CSF/IL-6/IFNγ cocktail-induced airway neutrophilic inflammation; assay type: in vivo, Balb/C mice; conditions: mouse, 1.0 mg/mL 50 μL oropharyngeal aspiration, BALF at twenty-four hours
Procedure: Airway neutrophilia is a hallmark of a range of respiratory disease in humans. Compound 1 was tested in a model of neutrophilic airway inflammation using a LPS/G-CSF/IL-6/IFNγ cocktail to induce airway neutrophilia.
Seven- to nine-week old male Balb/C (wildtype) mice from Jackson Laboratory were used in the study. On the day of study, animals were lightly anesthetized with isoflurane and administered either vehicle or test compound (1.0 mg/mL, 50 μL total volume over several breaths) via oropharyngeal aspiration. Animals were placed in lateral recumbency post dose and monitored for full recovery from anesthesia before being returned to their home cage. One hour later, animals were once again briefly anesthetized and challenged with either vehicle or LPS; 0.01 mg/kg/G-CSF; 5 μg/IL-6; 5 μg/IFNγ; 5 μg (100 μL total volume) via oropharyngeal aspiration (OA). Twenty-four hours after the LPS/G-CSF/IL-6/IFNγ cocktail administration, bronchoalveolar lavage fluid (BALF) was collected and neutrophils were counted.

[1] = tested on: IFNγ induced IP-10 protein levels; assay: Pharmacodynamic assay: inhibition of IFNγ-induced IP-10 in rabbits; assay type: in vivo, New Zealand White rabbits
Procedure: The ability of a single intravitreal administration of test compound to inhibit interferon-gamma (IFNγ) induced IP-10 protein levels was measured in rabbit vitreous and retina/choroid tissues.
Solution formulations at concentrations of 1 mg/mL and 4 mg/mL of compound 1 of Example 1 were prepared as in Assay 8. A suspension formulation was prepared by combining crystalline compound 1 of Example 1 with 0.5% hydroxypropyl methylcellulose (HPMC E5), 0.02% Tween 80, and 9 mg/mL sodium chloride in purified water to attain a target concentration of 20 mg/mL.
Male, New Zealand White rabbits (Liveon Biolabs, India) were used for the studies. Animals were acclimated after arrival at the research facilities (Jubilant Biosys Ltd., India). Each rabbit was given a total of two intravitreal (IVT) injections with a total dose volume of 50 μL per eye. The first IVT injection (45 μL per eye) delivered test compound or vehicle at a prescribed time point (i.e. 24 hours for the solution formulations or 1 week for the suspension formulation). The second IVT injection (5 μL per eye) delivered IFNγ (1 μg/eye; Stock solution 1 mg/mL; Kingfisher Biotech) or vehicle for the induction of IP-10. In brief, on the day of the injections, rabbits were anesthetized with an intramuscular injection of ketamine (35 mg/kg) and xylazine (5 mg/kg). Once deeply anesthetized, each eye was rinsed with sterile saline and IVT injections were performed using a 0.5 mL insulin syringe (50 units=0.5 mL) with a 31-gauge needle at the supra-nasal side of the both eyes by marking the position with a Braunstein fixed caliper (2¾″) 3.5 mm from the rectus muscle and 4 mm from the limbus.
Tissues were collected 24 hours after the second IVT injection with IFNγ. Vitreous humor (VH) and retina/choroid tissues (R/C) were collected and homogenized, and IP-10 protein levels were measured using a rabbit CXCL10 (IP-10) ELISA kit (Kingfisher Biotech). The percent inhibition of IFNγ-induced IP-10 was calculated in comparison to the vehicle/vehicle and vehicle/IFNγ groups.

[2] = Pharmacokinetics in plasma and lung in mouse; assay type: in vivo, BALB/c mice; conditions: oral aspiration, 0.2 mg/mL, 50 uL
Procedure: Plasma and lung levels of the test compound and the ratio thereof was determined in the following manner. BALB/c mice from Charles River Laboratories were used in the assay. Test compounds were individually formulated in 20% propylene glycol in pH 4 citrate buffer at a concentration of 0.2 mg/mL and 50 uL of the dosing solution was introduced into the trachea of a mouse by oral aspiration. At various time points (typically 0.167, 2, 6, 24 hr) post dosing, blood samples were removed via cardiac puncture and intact lungs were excised from the mice. Blood samples were centrifuged (Eppendorf centrifuge, 5804R) for 4 minutes at approximately 12,000 rpm at 4° C. to collect plasma. Lungs were padded dry, weighed, and homogenized at a dilution of 1:3 in sterile water. Plasma and lung levels of test compound were determined by LC-MS analysis against analytical standards constructed into a standard curve in the test matrix. A lung to plasma ratio was determined as the ratio of the lung AUC in μg hr/g to the plasma AUC in μg hr/mL, where AUC is conventionally defined as the area under the curve of test compound concentration vs. time.

exposure in lung relative to exposure in plasma (lung AUC to plasma AUC ratio) [2]: about 55 times
SMILES: CCc1cc(O)c(F)cc1-c1ccc2c(-c3nc4c([nH]3)CCN(C3CCN(C)CC3)C4)n[nH]c2c1 [compound 1, 5-ethyl-2-fluoro-4-(3-(5-(1-methylpiperidin-4-yl)-4,5,6,7-tetrahydro-1H-imidazo[4,5-c]pyridin-2-yl)-1H-indazol-6-yl)phenol]
inhibition of BALF eosinophil counts (BALF eosinophils): about 88%
reduction of the airway neutrophils compared to vehicle treated mice (airway neutrophils): 84%
inhibition of IFNγ-induced IP-10 ([1]; rabbit retina/choroid tissue, 45 μg solution, 24 hour pre-treatment): 86
inhibition of IFNγ-induced IP-10 ([1]; rabbit retina/choroid tissue, 180 μg solution, 24 hour pre-treatment): 100%
inhibition of IFNγ-induced IP-10 ([1]; rabbit retina/choroid tissue, crystalline suspension 20 mg/mL, 1 week pre-treatment): 100%
inhibition of IFNγ-induced IP-10 ([1]; rabbit vitreous humor, 45 μg solution, 24 hour pre-treatment): 70%
inhibition of IFNγ-induced IP-10 ([1]; rabbit vitreous humor, 180 μg solution, 24 hour pre-treatment): 91%
inhibition of IFNγ-induced IP-10 ([1]; rabbit vitreous humor, crystalline suspension 20 mg/mL, 1 week pre-treatment): 100%
